From patent US7601746B2 (Shionogi & Co., Ltd., priority 2003, dated 2009)

Biological target: T1, human TPO receptor (hTPOR) (Homo sapiens, UniProt P40238)
T1 construct: expressed in transfected cells; host or cells: BaF-B03 (murine IL-3 dependent cell line)
T1 sequence (P40238 26-635): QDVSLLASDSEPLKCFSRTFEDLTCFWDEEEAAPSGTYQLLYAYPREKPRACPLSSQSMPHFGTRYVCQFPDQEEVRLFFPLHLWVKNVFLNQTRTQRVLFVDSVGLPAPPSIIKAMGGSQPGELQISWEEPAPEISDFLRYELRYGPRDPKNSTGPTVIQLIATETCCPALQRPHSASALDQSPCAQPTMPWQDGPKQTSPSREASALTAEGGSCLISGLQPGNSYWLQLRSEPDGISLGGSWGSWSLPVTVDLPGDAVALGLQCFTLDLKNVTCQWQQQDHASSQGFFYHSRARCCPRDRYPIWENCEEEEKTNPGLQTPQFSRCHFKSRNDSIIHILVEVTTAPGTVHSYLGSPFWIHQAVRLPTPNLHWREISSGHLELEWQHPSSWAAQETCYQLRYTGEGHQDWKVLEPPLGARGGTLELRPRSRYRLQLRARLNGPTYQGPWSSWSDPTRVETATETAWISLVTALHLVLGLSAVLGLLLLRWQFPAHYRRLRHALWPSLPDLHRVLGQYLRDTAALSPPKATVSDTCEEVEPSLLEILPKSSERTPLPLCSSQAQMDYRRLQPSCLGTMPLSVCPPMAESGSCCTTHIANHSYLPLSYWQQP
Assay: Thrombopoietic activity: proliferation of TPO dependent BaF/hTPOR cells (WST-1, absorbance at 450 nm)
Format: cell-based
Conditions: 20 h + 4 h WST-1, ED50 = half concentration of the concentration showing the maximum thrombopoietic activity, Table 1
Summary of the method: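 Proliferation read-out: WST-1 absorbance at 450 nm after 20 h compound exposure plus 4 h reagent, using IL-3-deprived BaF/hTPOR cells (5×10^4 per well) dependent on human TPO receptor signalling. ED50 defined as half the concentration producing maximal activity.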

SMILES | EC50
CCCCCCCCCCOCc1cccc(-c2csc(NC(=O)c3cc(Cl)c(C=C(C)C(=O)O)c(Cl)c3)n2)c1F [Compound B76, 3-{2,6-dichloro-4-[4-(3-n-decyloxymethyl-2-fluorophenyl)thiazol-2-ylcarbamoyl]phenyl}-2-methylacrylic acid] | 2.98 nM
CCCCCOCc1cccc(-c2csc(NC(=O)c3cc(Cl)c(C=C(C)C(=O)O)c(Cl)c3)n2)c1F [Compound B77, 3-{2,6-dichloro-4-[4-(2-fluoro-3-{n-pentyloxymethyl}phenyl)thiazol-2-ylcarbamoyl]phenyl}-2-methylacrylic acid] | 3.06 nM
CCCCCOC(CCC)c1cccc(-c2csc(NC(=O)c3cc(Cl)c(C=C(C)C(=O)O)c(Cl)c3)n2)c1F (stereo not shown) [Compound B80, 3-(2,6-dichloro-4-{4-[2-fluoro-3-(1-n-pentyloxybutyl)phenyl]thiazol-2-ylcarbamoyl}phenyl)-2-methylacrylic acid] | 0.7 nM
CC(=Cc1c(Cl)cc(C(=O)Nc2nc(-c3cccc(CCCOCCCC(C)C)c3F)cs2)cc1Cl)C(=O)O [Compound B84, 3-[2,6-dichloro-4-(4-[2-fluoro-3-[3-(4-methylpentyloxy)propyl]phenyl]thiazol-2-ylcarbamoyl)phenyl]-2-methylacrylic acid] | 1.02 nM
CC(=Cc1c(Cl)cc(C(=O)Nc2nc(-c3cccc(CCCOCCC(C)(C)C)c3F)cs2)cc1Cl)C(=O)O [Compound B85, 3-[2,6-dichloro-4-(4-[3-[3-(3,3-dimethylbutyloxy)propyl]-2-fluorophenyl]thiazol-2-ylcarbamoyl)phenyl]-2-methylacrylic acid] | 0.88 nM
CCCCOC(CCCC)c1cccc(-c2csc(NC(=O)c3cc(Cl)c(C=C(C)C(=O)O)c(Cl)c3)n2)c1F (stereo not shown) [Compound B87, 3-(4-{4-[3-(1-n-butyloxypentyl)-2-fluorophenyl]thiazol-2-ylcarbamoyl}-2,6-dichlorophenyl)-2-methylacrylic acid] | 0.62 nM
CCC(CC)COCCCc1cccc(-c2csc(NC(=O)c3cc(Cl)c(C=C(C)C(=O)O)c(Cl)c3)n2)c1F [Compound B88, 3-[2,6-dichloro-4-(4-[3-[3-(2-ethylbutyloxy)propyl]-2-fluorophenyl]thiazol-2-ylcarbamoyl)phenyl]-2-methylacrylic acid] | 3.11 nM
CC(=Cc1c(Cl)cc(C(=O)Nc2nc(-c3cccc(CCCOCCC4CCCC4)c3F)cs2)cc1Cl)C(=O)O [Compound B89, 3-[2,6-dichloro-4-(4-[3-[3-(2-cyclopentylethyloxy)propyl]-2-fluorophenyl]thiazol-2-ylcarbamoyl)phenyl]-2-methylacrylic acid] | 1.51 nM
CCCCCOCCCc1cccc(-c2csc(NC(=O)c3cc(Cl)c(C=C(C)C(=O)O)c(Cl)c3)n2)c1F [Compound B90] | 1.15 nM
CCCCCCCCCCC(OC)c1cccc(-c2csc(NC(=O)c3cc(Cl)c(C=C(C)C(=O)O)c(Cl)c3)n2)c1F (stereo not shown) [Compound B91, 3-(2,6-dichloro-4-{4-[2-fluoro-3-(1-methyloxyundecyl)phenyl]thiazol-2-ylcarbamoyl)phenyl]-2-methylacrylic acid] | 1.02 nM
CCCCOCCCc1cccc(-c2csc(NC(=O)c3cc(Cl)c(C=C(C)C(=O)O)c(Cl)c3)n2)c1F [Compound B93, 3-(4-{4-[3-(3-n-butyloxypropyl)-2-fluorophenyl]thiazol-2-ylcarbamoyl}-2,6-dichlorophenyl]-2-methylacrylic acid] | 0.91 nM
CC(=Cc1c(Cl)cc(C(=O)Nc2nc(-c3cccc(CCCOC(C)C)c3F)cs2)cc1Cl)C(=O)O [Compound B94, 3-(2,6-dichloro-4-{4-[2-fluoro-3-(3-isopropyloxypropyl)phenyl]thiazol-2-ylcarbamoyl)phenyl]-2-methylacrylic acid] | 0.97 nM
CCCOCCCc1cccc(-c2csc(NC(=O)c3cc(Cl)c(C=C(C)C(=O)O)c(Cl)c3)n2)c1F [Compound B95, 3-(2,6-dichloro-4-{4-[2-fluoro-3-(3-n-propyloxypropyl)phenyl]thiazol-2-ylcarbamoyl)phenyl]-2-methylacrylic acid] | 0.82 nM
CCCCCCOCCCc1cccc(-c2csc(NC(=O)c3cc(Cl)c(C=C(C)C(=O)O)c(Cl)c3)n2)c1F [Compound B96, 3-(2,6-dichloro-4-{4-[2-fluoro-3-(3-n-hexyloxypropyl)phenyl]thiazol-2-ylcarbamoyl)phenyl]-2-methylacrylic acid] | 0.78 nM
CCCCCCOC(C)c1cccc(-c2csc(NC(=O)c3cc(Cl)c(C=C(C)C(=O)O)c(Cl)c3)n2)c1F (stereo not shown) [Compound B99, 3-(2,6-dichloro-4-{4-[2-fluoro-3-(1-n-hexyloxyethyl)phenyl]thiazol-2-ylcarbamoyl)phenyl]-2-methylacrylic acid] | 0.59 nM
CCCCOCCCC(OCCCC)c1cccc(-c2csc(NC(=O)c3cc(Cl)c(C=C(C)C(=O)O)c(Cl)c3)n2)c1F (stereo not shown) [Compound B100, 3-(4-{4-[3-(1,4-dibutyloxybutyl)-2-fluorophenyl]thiazol-2-ylcarbamoyl)-2,6-dichlorophenyl]-2-methylacrylic acid] | 0.68 nM
CCCCCCOCCC(OC)c1cccc(-c2csc(NC(=O)c3cc(Cl)c(C=C(C)C(=O)O)c(Cl)c3)n2)c1F (stereo not shown) [Compound B101, 3-(2,6-dichloro-4-{4-[2-fluoro-3-(3-n-hexyloxy-1-methyloxypropyl)phenyl]thiazol-2-ylcarbamoyl)phenyl]-2-methylacrylic acid] | 1.9 nM
CCCCCC(OC)c1cccc(-c2csc(NC(=O)c3cc(F)c(/C=C(\C)C(=O)O)c(F)c3)n2)c1OC (stereo not shown) [Compound B347, (E)-3-(2,6-difluoro-4-{4-[2-methyloxy-3-(1-methyloxyhexyl)phenyl]thiazol-2-ylcarbamoyl}phenyl)-2-methylacrylic acid] | 18.7 nM
COc1c(-c2csc(NC(=O)c3cc(F)c(/C=C(\C)C(=O)O)c(F)c3)n2)cccc1C(CC(C)(C)C)OC (stereo not shown) [Compound B349, (E)-3-(2,6-difluoro-4-{4-[2-methyloxy-3-(1-methyloxy-3,3-dimethylbutyl)phenyl]thiazol-2-ylcarbamoyl}phenyl)-2-methylacrylic acid] | 16.8 nM

Further lines, results first:

EC50 | SMILES
0.8 nM | CCC(OCCC(C)C)c1cccc(-c2csc(NC(=O)c3cc(Cl)c(C=C(C)C(=O)O)c(Cl)c3)n2)c1F (stereo not shown) [Compound B74, 3-[2,6-dichloro-4-(4-{2-fluoro-3-[1-(3-methylbutyloxy)proptyl]phenyl}thiazol-2-ylcarbamoyl)phenyl]-2-methylacrylic acid]
0.97 nM | CCCOC(CCC)c1cccc(-c2csc(NC(=O)c3cc(Cl)c(C=C(C)C(=O)O)c(Cl)c3)n2)c1F (stereo not shown) [Compound B78, 3-(2,6-dichloro-4-{4-[2-fluoro-3-(1-n-propyloxybutyl)phenyl]thiazol-2-ylcarbamoyl}phenyl)-2-methylacrylic acid]
0.77 nM | CCCCOC(CCC)c1cccc(-c2csc(NC(=O)c3cc(Cl)c(C=C(C)C(=O)O)c(Cl)c3)n2)c1F (stereo not shown) [Compound B79, 3-(4-{4-[3-(1-n-butyloxybutyl)-2-fluorophenyl]thiazol-2-ylcarbamoyl}-2,6-dichlorophenyl)-2-methylacrylic acid]
1.39 nM | CCCOC(CC)c1cccc(-c2csc(NC(=O)c3cc(Cl)c(C=C(C)C(=O)O)c(Cl)c3)n2)c1F (stereo not shown) [Compound B81, 3-(2,6-dichloro-4-{4-[2-fluoro-3-(1-n-propyloxypropyl)phenyl]thiazol-2-ylcarbamoyl}phenyl)-2-methylacrylic acid]
1.07 nM | CCCCOC(CC)c1cccc(-c2csc(NC(=O)c3cc(Cl)c(C=C(C)C(=O)O)c(Cl)c3)n2)c1F (stereo not shown) [Compound B82, 3-(4-{4-[3-(1-n-butyloxypropyl)-2-fluorophenyl]thiazol-2-ylcarbamoyl}-2,6-dichlorophenyl)-2-methylacrylic acid]
0.72 nM | CCCCCCOC(CC)c1cccc(-c2csc(NC(=O)c3cc(Cl)c(C=C(C)C(=O)O)c(Cl)c3)n2)c1F (stereo not shown) [Compound B83, 3-(2,6-dichloro-4-{4-[2-fluoro-3-(1-n-hexyloxypropyl)phenyl]thiazol-2-ylcarbamoyl}phenyl)-2-methylacrylic acid]
0.63 nM | CCCCC(OCCC)c1cccc(-c2csc(NC(=O)c3cc(Cl)c(C=C(C)C(=O)O)c(Cl)c3)n2)c1F (stereo not shown) [Compound B86, 3-(2,6-dichloro-4-{4-[2-fluoro-3-(1-n-propyloxypentyl)phenyl]thiazol-2-ylcarbamoyl}phenyl)-2-methylacrylic acid]
0.94 nM | CCCOC(C)c1cccc(-c2csc(NC(=O)c3cc(Cl)c(C=C(C)C(=O)O)c(Cl)c3)n2)c1F (stereo not shown) [Compound B97, 3-(2,6-dichloro-4-{4-[2-fluoro-3-(1-n-propyloxyethyl)phenyl]thiazol-2-ylcarbamoyl)phenyl]-2-methylacrylic acid]
0.73 nM | CCCCOC(C)c1cccc(-c2csc(NC(=O)c3cc(Cl)c(C=C(C)C(=O)O)c(Cl)c3)n2)c1F (stereo not shown) [Compound B98, 3-(4-{4-[3-(1-n-butyloxyethyl)-2-fluorophenyl]thiazol-2-ylcarbamoyl)-2,6-dichlorophenyl]-2-methylacrylic acid]
